Experiments:
Histamine H4 receptor [1] = target: Histamine H4 receptor (Rattus norvegicus, UniProt Q91ZY1); experiment: Agonist activity at rat histamine H4 receptor expressed in HEK293 cells coexpressing Gqi5 protein assessed as calcium flux by FLIPR assay; assay type: functional, cell-based
[2] = target: Histamine H4 receptor (Rattus norvegicus) (UniProt Q91ZY1); experiment: Agonist activity at rat histamine H4 receptor expressed in HEK293 cells coexpressing Gqi5 protein assessed as calcium flux by FLIPR assay relative to histamine; assay type: functional, cell-based
Histamine H4 receptor [3] = target: Histamine H4 receptor (Homo sapiens, UniProt Q9H3N8); conditions: HEK293

Chain of Histamine H4 receptor (Rattus norvegicus, UniProt Q91ZY1) (Q91ZY1 whole entry): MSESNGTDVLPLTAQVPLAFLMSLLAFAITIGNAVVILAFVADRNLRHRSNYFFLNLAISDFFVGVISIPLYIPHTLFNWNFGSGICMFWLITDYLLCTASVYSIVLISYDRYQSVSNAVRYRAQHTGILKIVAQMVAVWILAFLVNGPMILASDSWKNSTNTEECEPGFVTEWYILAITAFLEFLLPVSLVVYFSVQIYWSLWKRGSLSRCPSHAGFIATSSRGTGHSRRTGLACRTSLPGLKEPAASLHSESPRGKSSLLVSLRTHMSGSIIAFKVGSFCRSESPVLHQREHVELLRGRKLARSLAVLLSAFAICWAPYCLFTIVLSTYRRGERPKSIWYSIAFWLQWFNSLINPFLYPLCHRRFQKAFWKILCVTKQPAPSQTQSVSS
Chain of Histamine H4 receptor (Rattus norvegicus) (Q91ZY1 whole entry): as above

EC50 (Histamine H4 receptor [1]) [nM] | Efficacy [2] [%] | pKb (Histamine H4 receptor [3]) | SMILES
31.6 | 50 | 8.24 | CN1CCN(c2cc(-c3cccc(Cl)c3)nc(N)n2)CC1
12300 | 27 | 5.38 | CN1CCN(c2cc(N3CCNC3=O)nc(N)n2)CC1
1820 | 53 | 8.38 | CN1CCN(c2cc(-c3cn[nH]c3)nc(N)n2)CC1
46.8 | 73 | 8.05 | CN1CCN(c2cc(N3CCCCC3)nc(N)n2)CC1
1200 | 73 | 6.75 | CN1CCN(c2cc(-c3ccccc3C#N)nc(N)n2)CC1
117 | 81 | 8.18 | CN1CCN(c2cc(Nc3ccccc3)nc(N)n2)CC1
43.7 | 68 | 8.86 | COc1ccccc1-c1cc(N2CCN(C)CC2)nc(N)n1
102 | 69 | 8.12 | COc1cccc(-c2cc(N3CCN(C)CC3)nc(N)n2)c1
1350 | 68 | 6.84 | CN1CCN(c2cc(N3CCN(C)CC3)nc(N)n2)CC1
178 | 60 | 8.07 | Cc1ccccc1-c1cc(N2CCN(C)CC2)nc(N)n1
234 | 76 | 7.39 | COc1ccncc1-c1cc(N2CCN(C)CC2)nc(N)n1
58.9 | 63 | 7.36 | Cc1c(-c2ccc(C#N)cc2)nc(N)nc1N1CCN(C)CC1
209 | 70 | 7.3 | CN1CCN(c2cc(-c3cccnc3)nc(N)n2)CC1
37.2 | 74 | 8.32 | CN1CCN(c2cc(-c3ccc(Cl)cc3)nc(N)n2)CC1
234 | 48 | 8.06 | CN1CCN(c2cc(-c3cccc(C#N)c3)nc(N)n2)CC1
69.2 | 79 | 8.41 | CN1CCN(c2cc(N3CCCC3)nc(N)n2)CC1
56.2 | 81 | 8.06 | Cc1ccc(-c2cc(N3CCN(C)CC3)nc(N)n2)cc1

Further lines, the molecule ahead of its results:

SMILES | EC50 (Histamine H4 receptor [1]) [nM] | Efficacy [2] [%] | pKb (Histamine H4 receptor [3])
CN1CCN(c2cc(N(C)C)nc(N)n2)CC1 | 3020 | 59 | 6.85
CN1CCN(c2cc(C(C)(C)C)nc(O)n2)CC1 | 22900 | 35 | 4.39
CN(C)CCN1CCN(c2cc(C(C)(C)C)nc(N)n2)CC1 | 2400 | 66 | 6.44
CNc1cc(N2CCN(C)CC2)nc(N)n1 | 490 | 93 | 8.28
CN1CCN(c2cc(C(C)(C)C)nc(N)n2)CC1 | 67.6 | 64 | 8.35
CNc1nc(N2CCN(C)CC2)cc(C(C)(C)C)n1 | 5130 | 46 | 6.08
CN(C)CCNc1cc(C(C)(C)C)nc(N)n1 | 1780 | 39 | 6.91
CN1CCN(c2cc(Cl)nc(N)n2)CC1 | 17000 | 65 | 4.75
CN1CCN(c2nc(N)cc(C(C)(C)C)n2)CC1 | 7940 | 82 | 5.82
CN1CCN(c2cc(N3CCC(N(C)C)C3)nc(N)n2)CC1 (stereo not drawn) | 3630 | 62 | 5.76
CN1CCN(c2cc(I)nc(N)n2)CC1 | 2040 | 67 | 6.33
COc1cc(N2CCN(C)CC2)nc(N)n1 | 10500 | 55 | 5.53
Cc1cnc(N)nc1N1CCN(C)CC1 | 66.1 | 81 | 7.07
CN1CCN(c2nc(N)nc(C(C)(C)C)n2)CC1 | 251 | 70 | 7.04

Reference: ChEMBL document CHEMBL1140148, “Structure-activity studies on a series of a 2-aminopyrimidine-containing histamine H4 receptor ligands” (J Med Chem, 2008)
